Assay results from the NIST ThermoML archive (doi:10.1021/acs.jced.6b00516).

How the values were obtained:
[1] = xn = mol fraction of the nth substance listed; details: 102 kPa, Liquid, Concentric cylinders viscometry, x2 = 0
[2] = for viscosity / speed of sound / mass density: 102 kPa, Liquid; for viscosity: Concentric cylinders viscometry; for speed of sound: Frequency=3 MHz, Sing-around technique in a fixed-path interferometer; for mass density: Vibrating tube method; for surface tension liquid-gas: Sessile Drop

CCCCCCCCCCCCCCCC [hexadecane] + CCCCC1CCCCC1
[1]
Details	viscosity [mPa·s]
293.15 K	3.44
303.15 K	2.72
313.15 K	2.21
323.15 K	1.83
333.15 K	1.54
343.15 K	1.31
353.15 K	1.14

Cc1ccccc1 [toluene] + CCCCC1CCCCC1
[1]
Details	viscosity [mPa·s]
293.15 K	0.607
303.15 K	0.54
313.15 K	0.483
323.15 K	0.434
333.15 K	0.391
343.15 K	0.349
353.15 K	0.307

CCCCCCCCCCCCCCCC [hexadecane]
[2]
Details	mass density [kg/m3]	speed of sound [m/s]	surface tension liquid-gas [mN/m]	viscosity [mPa·s]
293.15 K	773.41	1357.2	–	3.44
294 K	–	–	27.1	–
303.15 K	766.47	1319.5	–	2.72
313.15 K	759.55	1283.3	–	2.21
323.15 K	752.63	1247.3	–	1.83
333.15 K	745.71	1212	–	1.54
343.15 K	738.8	–	–	1.31
353.15 K	731.9	–	–	1.14
363.15 K	–	–	–	0.994
373.15 K	–	–	–	0.878

CCCCC1CCCCC1 [butylcyclohexane]
[2]
Details	mass density [kg/m3]	speed of sound [m/s]	surface tension liquid-gas [mN/m]	viscosity [mPa·s]
293.15 K	799.33	1328.4	–	1.31
294 K	–	–	26.7	–
303.15 K	791.82	1288.7	–	1.12
313.15 K	784.28	1249.5	–	0.961
323.15 K	776.7	1210.8	–	0.837
333.15 K	769.09	1172.8	–	0.735
343.15 K	761.4	–	–	0.648
353.15 K	753.7	–	–	0.576

Cc1ccccc1 [toluene]
[2]
Details	mass density [kg/m3]	speed of sound [m/s]	surface tension liquid-gas [mN/m]	viscosity [mPa·s]
293.15 K	866.84	1326.6	–	0.607
294.2 K	–	–	28.6	–
303.15 K	857.52	1283.6	–	0.54
313.15 K	848.14	1241.1	–	0.483
323.15 K	838.68	1199.2	–	0.434
333.15 K	829.15	1157.7	–	0.391
343.15 K	819.6	–	–	0.349
353.15 K	809.8	–	–	0.307
